# Laboratory results from ChEMBL document CHEMBL2074344, “Active efflux of the 5-HT(1A) receptor agonist flesinoxan via P-glycoprotein at the blood-brain barrier” (Eur J Pharm Sci, 2001).
# Assays:
# [1] = biological target: ATP-dependent translocase ABCB1 (Mus musculus, UniProt P21447); experiment: TP_TRANSPORTER: increase in brain concentration in mdr1a(-/-) mouse; assay type: functional, organism-based; settings: in vivo
# [2] = biological target: ATP-dependent translocase ABCB1 (Homo sapiens, UniProt P08183); experiment: TP_TRANSPORTER: transepithelial transport (basal to apical) in MDR1-expressing LLC-PK1 cells; assay type: functional, cell-based; settings: pig
# ATP-dependent translocase ABCB1 (Homo sapiens, UniProt P08183), sequence (P08183 whole entry): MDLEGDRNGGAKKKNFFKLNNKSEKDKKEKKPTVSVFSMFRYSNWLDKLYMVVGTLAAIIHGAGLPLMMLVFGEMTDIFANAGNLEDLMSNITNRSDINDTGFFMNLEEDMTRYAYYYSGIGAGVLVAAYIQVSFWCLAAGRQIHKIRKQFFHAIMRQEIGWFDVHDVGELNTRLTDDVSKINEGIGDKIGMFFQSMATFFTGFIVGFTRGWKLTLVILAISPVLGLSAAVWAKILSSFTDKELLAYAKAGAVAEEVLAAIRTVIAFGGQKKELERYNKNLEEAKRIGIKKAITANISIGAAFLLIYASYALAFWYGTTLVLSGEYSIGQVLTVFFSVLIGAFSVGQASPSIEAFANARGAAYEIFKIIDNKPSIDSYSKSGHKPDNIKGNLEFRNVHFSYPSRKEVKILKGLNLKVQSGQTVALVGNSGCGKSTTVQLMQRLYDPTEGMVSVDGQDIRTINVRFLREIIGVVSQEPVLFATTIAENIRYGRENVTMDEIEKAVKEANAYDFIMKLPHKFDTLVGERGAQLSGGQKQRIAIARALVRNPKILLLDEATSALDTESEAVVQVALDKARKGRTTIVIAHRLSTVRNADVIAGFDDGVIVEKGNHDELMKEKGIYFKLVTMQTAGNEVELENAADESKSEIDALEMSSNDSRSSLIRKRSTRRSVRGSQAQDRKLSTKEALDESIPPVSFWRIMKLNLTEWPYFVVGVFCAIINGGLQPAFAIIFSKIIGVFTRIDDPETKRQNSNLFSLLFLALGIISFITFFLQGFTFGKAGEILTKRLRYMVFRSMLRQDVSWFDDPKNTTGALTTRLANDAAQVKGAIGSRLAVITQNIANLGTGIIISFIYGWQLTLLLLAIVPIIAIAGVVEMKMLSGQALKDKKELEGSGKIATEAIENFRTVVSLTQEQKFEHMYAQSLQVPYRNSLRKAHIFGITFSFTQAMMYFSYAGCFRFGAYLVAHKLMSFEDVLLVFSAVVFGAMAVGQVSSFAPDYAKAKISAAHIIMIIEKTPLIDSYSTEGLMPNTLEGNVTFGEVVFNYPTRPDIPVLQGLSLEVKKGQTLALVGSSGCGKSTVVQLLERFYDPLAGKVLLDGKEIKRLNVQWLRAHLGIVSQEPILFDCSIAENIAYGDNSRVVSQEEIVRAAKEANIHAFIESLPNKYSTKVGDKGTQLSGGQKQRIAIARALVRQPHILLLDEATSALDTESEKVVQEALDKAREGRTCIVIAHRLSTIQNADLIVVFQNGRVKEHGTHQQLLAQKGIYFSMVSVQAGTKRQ
# ATP-dependent translocase ABCB1 (Mus musculus, UniProt P21447), sequence (P21447 whole entry): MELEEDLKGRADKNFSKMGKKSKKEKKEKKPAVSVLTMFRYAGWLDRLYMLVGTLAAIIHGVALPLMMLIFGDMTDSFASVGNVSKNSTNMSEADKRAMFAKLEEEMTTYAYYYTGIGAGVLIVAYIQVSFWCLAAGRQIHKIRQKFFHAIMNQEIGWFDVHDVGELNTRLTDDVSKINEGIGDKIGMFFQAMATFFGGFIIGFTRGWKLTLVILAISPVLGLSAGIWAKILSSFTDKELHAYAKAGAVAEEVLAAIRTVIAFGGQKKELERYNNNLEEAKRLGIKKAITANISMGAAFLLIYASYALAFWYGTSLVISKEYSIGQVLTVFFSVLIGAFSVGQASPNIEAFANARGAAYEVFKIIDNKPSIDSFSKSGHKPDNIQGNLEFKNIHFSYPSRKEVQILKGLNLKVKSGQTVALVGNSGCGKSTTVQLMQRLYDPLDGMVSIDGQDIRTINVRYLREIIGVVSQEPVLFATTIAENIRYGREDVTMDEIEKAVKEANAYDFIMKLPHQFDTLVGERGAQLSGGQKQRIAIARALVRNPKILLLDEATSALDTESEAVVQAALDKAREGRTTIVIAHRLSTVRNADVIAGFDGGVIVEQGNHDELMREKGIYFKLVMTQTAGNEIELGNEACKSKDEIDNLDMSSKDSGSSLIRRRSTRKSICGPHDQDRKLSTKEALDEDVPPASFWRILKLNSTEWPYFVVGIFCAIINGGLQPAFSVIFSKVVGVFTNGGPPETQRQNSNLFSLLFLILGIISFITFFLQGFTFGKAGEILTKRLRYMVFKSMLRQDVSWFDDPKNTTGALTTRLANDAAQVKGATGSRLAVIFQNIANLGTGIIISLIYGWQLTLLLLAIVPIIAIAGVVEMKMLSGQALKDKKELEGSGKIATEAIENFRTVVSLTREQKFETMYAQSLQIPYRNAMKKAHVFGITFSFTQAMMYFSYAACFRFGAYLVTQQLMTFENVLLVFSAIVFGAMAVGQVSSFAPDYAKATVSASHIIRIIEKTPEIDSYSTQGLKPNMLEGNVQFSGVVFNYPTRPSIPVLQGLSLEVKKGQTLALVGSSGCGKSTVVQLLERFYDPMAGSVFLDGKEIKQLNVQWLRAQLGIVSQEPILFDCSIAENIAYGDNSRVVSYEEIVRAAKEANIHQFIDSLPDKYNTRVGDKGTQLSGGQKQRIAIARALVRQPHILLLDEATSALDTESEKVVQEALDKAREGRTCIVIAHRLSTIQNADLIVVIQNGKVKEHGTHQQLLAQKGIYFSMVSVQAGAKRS
structure (smiles),measurement,setting,value
O=C(NCCN1CCN(c2cccc3c2OC[C@H](CO)O3)CC1)c1ccc(F)cc1 [FLESINOXAN],Activity,[1],substrate [+]
same,Activity,[2],substrate [+]
